Laboratory results published in patent publication US10035820B2, “Compounds which inhibit neuronal exocytosis” (Lubrizol Advanced Materials, Inc., priority 2012, dated 2018).

System: human neuroblastoma cell line
Assay: Release of noradrenaline induced by TPA/Ionomycin in a neuroblastoma cell line, quantified by ELISA
Type: cell-based
Details: TPA/ION control = 100
Method: The induction of the release of noradrenaline with TPA (12-O-tetradecanoylphorbol-13-acetate)/Ionomycin enables direct measurement of neuronal exocytosis. For the study of the inhibitory effect of the compounds of the invention on the release of noradrenaline, cells of a human neuroblastoma cell line were pre-incubated (1×10^6 cells/well) for 60 minutes with the compound of the invention (1 μM, 10 μM, 100 μM, 500 μM or 1 mM compounds), and afterward the release of noradrenaline was induced. The release of the noradrenaline neurotransmitter was induced by an 8 minute pre-treatment with a solution of 12-O-tetradecanoylphorbol-13-acetate (TPA) 100 nM, which mobilized the intracellular vesicles which contained the neurotransmitter; followed by a 5 minute incubation with TPA/Ionomycin (100 nM/10 μM), which induced the release of the neurotransmitter contained in these vesicles. […] For this, absorbance at 405 nm was measured in Thermo Scientific Multiskan Ascent equipment.
The blocking of the SNARE complex by the compounds of the invention lead to an inhibition of neuronal exocytosis and therefore, a decrease in the levels of released noradrenaline (Table 6).

Row | Substance | % RELEASED NORADRENALINE Average (1 μM compound) [%] | % RELEASED NORADRENALINE Average (10 μM compound) [%] | % RELEASED NORADRENALINE Average (100 μM compound) [%] | % RELEASED NORADRENALINE Average (500 μM compound) [%] | % RELEASED NORADRENALINE Average (1000 μM compound) [%]
1 | Ac-EELKRWM-NH2 [Ac-SEQ ID NO: 116-NH2] | 87.59 | 83.30 | 62.24 | 52.82 | 43.10
2 | Ac-ENLKRWM-NH2 [Ac-SEQ ID NO: 117-NH2] | 87.99 | 83.11 | 70.76 | 58.37 | 54.64
